What was measured:
[1] = target: T1, Human CB2 (Homo sapiens, UniProt P34972); test: Human CB2 Radioligand Binding Assay; details: membranes from stably transfected CHO CB2 cells; competition with [3H] CP-55,940; read-out: CB2 Ligand Binding Asssay
T1 construct: expressed in transfected cells; membrane preparation
Method: (§1) This receptor binding filtration assay measures the receptor-ligand interactions of compounds by measuring ability to compete with a radiolabeled control ligand. Reactions were performed in 96 deep-well plate (Costar 3961) with a final volume of 600 ul. Compounds were added to each well either in single point (10 uM final) or dose-response. Compounds were delivered in DMSO or further diluted in incubation buffer to a final assay DMSO concentration of 1%. Incubation buffer (50 mM Tris-HCl pH 7.4, 2.5 mM EGTA, 5 mM MgCl2, 5.0 mg/ml fatty acid free BSA) was added to each well. Following buffer addition, [^3H] CP-55,940 was added. Tritiated CP-55,940 (Perkin Elmer) was used at the Kd determined from prior saturation binding experiments conducted on each lot of membranes. Membrane preparations from stably transfected CHO CB2 cells were added and the reaction was incubated for 90 minutes at 30° C. Unifilter GF/C filtration plates (Perkin Elmer) were pre-wet with 0.05% polyethylenimine. Samples were transferred to Unifilter plates and separation of unbound radioligand was achieved using a vacuum manifold (Millipore). Following thorough washing with 5 ml/well ice-cold wash buffer (50 mM Tris-HCl pH 7.4, 2.5 mM EGTA, 5 mM MgCl2, 0.5 mg/ml fatty acid free BSA), filterplates were dried completely. Betaplate Scint Scintillation cocktail (25 ul, Perkin Elmer) was applied and plates were read using Microbeta Trilux (Wallac). Data analysis was performed in Spotfire. Activity of the positive control (100 nM CP-55,940) was set as 100% efficacy.
Stable recombinant Human CB2-CHO cell membranes were prepared as follows: Chinese Hamster Ovarian (CHO) cells stably expressing human cannabinoid receptor type 2 were grown to ˜90% confluence in 15×100 mm culture dishes under puromycin selection (5 ug/ml) Cells were harvested from culture flasks using a cell scraper, were washed once with cold phosphate-buffered saline (calcium and magnesium free) and pelleted by centrifugation at 400 g for 5 min at 4° C. Cell pellet was washed once with cold phosphate-buffered saline and centrifuged again at 400×g for 5 min at 4° C. The pellet was suspended in ice-cold lysis buffer (10 mM Tris-HCl, 0.1 mM EDTA, containing […], pH 7.5) and homogenized in a chilled 7 ml glass dounce homogenizer using 50 strokes. The homogenate was centrifuged at 400 g for 15 min at 4° C. The cloudy supernatant was collected and centrifuged at 41000 g for 30 min at 4° C. The resulting pellet was washed with ice-cold sucrose-free lysis buffer and centrifuged again at 41000 g for 30 min at 4° C. The membrane pellet was suspended in sucrose-free storage buffer (10 mm Tris-HCl, 0.1 mM EDTA, pH 7.5) to a concentration of 2-3 mg protein/ml. Aliquots were flash frozen in liquid nitrogen and stored at −80° C. Concentration was determined using Dc protein assay kit (Bio-Rad).

[2] = target: T2, human cannabinoid receptor type 1 (Homo sapiens, UniProt P21554); test: Human CB1 Radioligand Binding Assay (basis of selectivity CB2 vs. CB1)
T2 construct: purchased Perkin Elmer RBHCB1M; host or cells: HEK 293 EBNA cells
T2 sequence (P21554 whole entry): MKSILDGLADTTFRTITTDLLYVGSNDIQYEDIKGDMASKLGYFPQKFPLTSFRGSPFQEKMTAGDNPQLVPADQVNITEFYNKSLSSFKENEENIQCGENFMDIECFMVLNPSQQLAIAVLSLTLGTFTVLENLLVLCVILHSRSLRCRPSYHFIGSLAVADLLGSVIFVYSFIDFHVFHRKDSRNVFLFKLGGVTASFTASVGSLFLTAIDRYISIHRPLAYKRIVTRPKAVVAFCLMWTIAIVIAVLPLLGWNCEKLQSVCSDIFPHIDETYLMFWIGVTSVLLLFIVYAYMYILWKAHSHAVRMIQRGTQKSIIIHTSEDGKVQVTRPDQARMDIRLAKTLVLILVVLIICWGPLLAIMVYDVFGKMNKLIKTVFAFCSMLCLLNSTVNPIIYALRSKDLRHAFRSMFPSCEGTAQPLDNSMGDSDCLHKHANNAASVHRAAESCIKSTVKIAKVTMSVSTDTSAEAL
Method: as §1
The CB1 binding assay was performed as described above except that HEK 293 EBNA cells expressing human cannabinoid receptor type 1 (Perkin Elmer cat #RBHCB1M) were used according the manufacturer's instructions. The incubation buffer was composed of 50 mM Tris-HCl pH 7.4, 2.5 mM EDTA, 5 mM MgCl2, 5.0 mg/ml fatty acid free BSA and the wash buffer was composed of 50 mM Tris-HCl pH 7.4, 2.5 mM EDTA, 5 mM MgCl2, 0.5 mg/ml fatty acid free BSA. Activity of the positive control (100 nM CP-55,940) was set as 100% efficacy.

T1 sequence (P34972 whole entry): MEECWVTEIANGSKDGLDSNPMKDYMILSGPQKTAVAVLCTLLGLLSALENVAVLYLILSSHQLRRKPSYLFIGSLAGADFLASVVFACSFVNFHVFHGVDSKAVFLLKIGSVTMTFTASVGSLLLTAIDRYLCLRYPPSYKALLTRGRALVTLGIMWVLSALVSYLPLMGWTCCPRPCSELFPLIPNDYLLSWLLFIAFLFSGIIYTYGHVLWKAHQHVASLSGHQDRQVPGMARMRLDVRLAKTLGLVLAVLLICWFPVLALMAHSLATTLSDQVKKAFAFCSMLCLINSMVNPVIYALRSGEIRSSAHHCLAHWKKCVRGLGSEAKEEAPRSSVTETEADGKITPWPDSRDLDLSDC

Row | IC50 (radioligand displacement) [1] [nM] | Selectivity, CB2 vs. CB1 [2] | Structure (SMILES)
1 | < 1000 | + (+ indicates > 10-fold) | O=C(Nc1ccc(F)cc1F)C1CCCn2cccc2C1c1ccccc1 (single isomer, unassigned) [Example 106, (8,9-cis)-N-(2,4-Difluorophenyl)-9-phenyl-6,7,8,9-tetrahydro-5H-pyrrolo[1,2-a]azepine-8-carboxamide]
2 | > 1000 | − (− indicates < 10-fold) | CC(C)(C)c1ccc(C2c3cccn3CCCC2NC(=O)Nc2ccc(Cl)c(Cl)c2)cc1 (single isomer, unassigned) [Example 121, 1-(9-(4-tert-Butylphenyl)-6,7,8,9-tetrahydro-5H-pyrrolo[1,2-a]azepin-8-yl)-3-(3,4-dichlorophenyl)urea]
3 | > 1000 |  | O=C(Nc1ccc(C(F)(F)F)cc1)C1=C(c2ccccc2)c2cccn2CC1 [Example 68, 8-Phenyl-N-(4-(trifluoromethyl)phenyl)-5,6-dihydroindolizine-7-carboxamide]
4 | > 1000 | − (− indicates < 10-fold) | O=C(Nc1ccc(F)c(F)c1)C1CCn2cccc2C1c1ccccc1 (mixture of isomers) [Example 101, N-(3,4-Difluorophenyl)-8-phenyl-5,6,7,8-tetrahydroindolizine-7-carboxamide]
5 | > 1000 | − (− indicates < 10-fold) | O=C(Nc1ccc(F)c(F)c1)C1CCCn2cccc2C1c1ccccc1 (single isomer, unassigned) [Example 108, (8,9-cis)-N-(3,4-Difluorophenyl)-9-phenyl-6,7,8,9-tetrahydro-5H-pyrrolo[1,2-a]azepine-8-carboxamide]
6 | < 1000 | + (+ indicates > 10-fold) | CC(C)(C)c1ccc(C2=C(NC(=O)Nc3ccc(F)cc3F)CCCn3cccc32)cc1 [Example 84, (E)-1-(9-(4-tert-Butylphenyl)-6,7-dihydro-5H-pyrrolo[1,2-a]azepin-8-yl)-3-(2,4-difluorophenyl)urea]
7 | > 1000 |  | O=C(Nc1ccc(F)cc1F)C1=C(c2ccccc2)c2cccn2CC1 [Example 70, N-(2,4-Difluorophenyl)-8-phenyl-5,6-dihydroindolizine-7-carboxamide]

Second part, the molecule before the results:

Row | Structure (SMILES) | IC50 (radioligand displacement) [1] [nM] | Selectivity, CB2 vs. CB1 [2]
8 | CC(C)(C)c1ccc(C2c3cccn3CCN2C(=O)Nc2ccc(Cl)cc2Cl)cc1 (stereo not drawn) [Example 3, 1-(4-tert-Butylphenyl)-N-(2,4-dichlorophenyl)-3,4-dihydropyrrolo[1,2-a]pyrazine-2(1H)-carboxamide] | < 1000 | 
9 | O=C(Nc1ccc(F)cc1F)N1CCCn2cccc2C1Cc1ccccc1 (stereo not drawn) [Example 41, 1-Benzyl-N-(2,4-difluorophenyl)-4,5-dihydro-1H-pyrrolo[1,2-a][1,4]diazepine-2(3H)-carboxamide] | > 1000 | − (− indicates < 10-fold)
10 | CC(C)(C)c1ccc(C2c3nccn3CCCN2C(=O)Nc2ccc(F)cc2F)cc1 (stereo not drawn) [Example 27, 9-(4-tert-Butylphenyl)-N-(2,4-difluorophenyl)-6,7-dihydro-5H-imidazo [1,2-a][1,4]diazepine-8(9H)-carboxamide] | < 1000 | + (+ indicates > 10-fold)
11 | O=C(Nc1ccc(Cl)cc1Cl)N1CCCn2cccc2C1c1ccc(OC(F)(F)F)cc1 (stereo not drawn) [Example 16] | > 1000 | 
12 | CC(C)(C)c1ccc(C2NCCCn3cccc32)cc1 (stereo not drawn) [Example 6, 1-(4-tert-Butylphenyl)-2,3,4,5-tetrahydro-1H-pyrrolo[1,2-a][1,4]diazepine] | > 1000 | 
13 | O=C(Nc1ccc(F)cc1F)N1CCCn2cccc2C1c1ccc(OC(F)(F)F)cc1 (stereo not drawn) [Example 15, N-(2,4-Difluorophenyl)-1-(4-(trifluoromethoxy)phenyl)-4,5-dihydro-1H-pyrrolo[1,2-a][1,4]diazepine-2(3H)-carboxamide] | < 1000 | 
14 | Cc1ccc(C2c3cccn3CCCN2C(=O)Nc2ccc(Cl)cc2Cl)cc1 (stereo not drawn) [Example 9, N-(2,4-Dichlorophenyl)-1-p-tolyl-4,5-dihydro-1H-pyrrolo[1,2-a][1,4]diazepine-2(3H)-carboxamide] | < 1000 | 

From patent US20090062253A1, “HETEROCYCLODIAZEPINE CANNABINOID RECEPTOR MODULATORS FOR TREATMENT OF DISEASE” (KALYPSYS, INC., priority 2007, published 2009)
